Data on six compounds can be found in US20180214449A1, “CANCER THERAPY USING JAK INHIBITOR IN COMBINATION WITH MAPK INHIBITORS” (UBRX, INC., priority 2015, published 2018).

Assay [1] relates to B-Raf inhibitor resistant cells A375 or Lu1205R. Briefly: Growth in soft agar of B-Raf inhibitor resistant cells. It is filed as cell-based, human. To be noted: two weeks in soft agar. The protocol: Melanoma cells A375 and Lu1205 were cultured in Dulbecco's modified Eagle's medium (DMEM) supplemented with 10% fetal bovine serum (FBS), and penicillin-streptomycin. The melanoma UACC cell lines (UACC91, UACC502, UACC612, UACC647, and UACC1113) were maintained in Rosewell Park Memorial Institute Medium (RPMI1640) supplemented with 10% FBS and penicillin-streptomycin.

The subject of assay [2] is JAK1. To be noted: cited from earlier work.
In assay [3] the target is JAK2 (Homo sapiens, UniProt O60674). To be noted: cited from earlier work.
Assay [4] has as its system UACC257. Briefly: IC50 to B-Raf inhibitors in melanoma cell line. It is filed as cell-based. To be noted: Homo sapiens, UACC-257.
The subject of assay [5] is UACC903. Briefly: IC50 to B-Raf inhibitors in melanoma cell line. It is filed as cell-based. To be noted: Homo sapiens, UACC-903.
The test system of assay [6] is UACC3291. Nature of the assay: IC50 to B-Raf inhibitors in melanoma cell line. It is filed as cell-based. To be noted: Homo sapiens.
For assay [7], the system named is UACC1308. Briefly: IC50 to B-Raf inhibitors in melanoma cell line. It is filed as cell-based. To be noted: Homo sapiens.
The test system of assay [8] is UACC558. Nature of the assay: IC50 to B-Raf inhibitors in melanoma cell line. To be noted: Homo sapiens. It is filed as cell-based.
Assay [9] concerns UACC2641. Briefly: IC50 to B-Raf inhibitors in melanoma cell line. It is filed as cell-based. To be noted: Homo sapiens.
For assay [10], the system named is UACC502. Nature of the assay: IC50 to B-Raf inhibitors in melanoma cell line. It is filed as cell-based. To be noted: Homo sapiens. The protocol:
(§1) Melanoma cells A375 and Lu1205 were cultured in Dulbecco's modified Eagle's medium (DMEM) supplemented with 10% fetal bovine serum (FBS), and penicillin-streptomycin. The melanoma UACC cell lines (UACC91, UACC502, UACC612, UACC647, and UACC1113) were maintained in Rosewell Park Memorial Institute Medium (RPMI1640) supplemented with 10% FBS and penicillin-streptomycin. In order to develop resistance to B-Raf inhibitor PLX-4032, the cells were grown with increasing concentrations of the inhibitor at each passage and eventually maintained in appropriate media containing either 5 μM (for A375 and Lu1205 cells) or 1 μM (for UACC cells) PLX-4032.
(§2) Melanoma cell lines UACC91, UACC502, UACC612, UACC647, and UACC1113 were treated with B-Raf inhibitors PLX-4032 or PLX-4720, and the IC50 values were correlated with RNF125 expression levels. The RNF125 expression was determined using RNA-Sequencing (RNA-Seq) methods and expressed in fragments per kilobase per million reads unit (FPKM).

Assay [11] has as its system UACC612. Nature of the assay: IC50 to B-Raf inhibitors in melanoma cell line. To be noted: Homo sapiens. It is filed as cell-based. The protocol: as §1, §2
In assay [12] the test system is UACC647. Nature of the assay: IC50 to B-Raf inhibitors in melanoma cell line. It is filed as cell-based. To be noted: Homo sapiens. The method, then:
as §1, §2

In assay [13] the test system is UACC91. Briefly: IC50 to B-Raf inhibitors in melanoma cell line. It is filed as cell-based. To be noted: Homo sapiens. The protocol: as §1, §2
Assay [14] has as its system mouse T-cell lymphoma cells. To be noted: read-out: IC50, IL-2 and IL-4-dependent proliferation; cited from earlier work.
For assay [15], the system named is other protein tyrosine kinases. To be noted: read-out: IC50s for other protein tyrosine kinases; units printed within the range (nM to μM); cited from earlier work.
Assay [16] has as its system melanoma patients. To be noted: clinical trial data; cited from earlier work.
Assay [17] relates to A375, Lu1205, and several UACC melanoma cell lines resistant to BRAF inhibitors or BRAF and MEK inhibitors. Briefly: Example 2: growth in soft agar of resistant melanoma cells. It is filed as cell-based, human. To be noted: two weeks in soft agar, 0-10 μM. The protocol:
The cells are grown for two weeks in soft agar, in the presence of 0-10 μM of ruxolitinib (JAK1 inhibitor), dabrafenib (BRAF inhibitor), trametinib (MEK inhibitor) as single agents or in combination therapies, using a constant volume of inhibitor for all the conditions.

pIC50: −log10 of the molar value.

Sequence of JAK2 (O60674 whole entry, species assumed): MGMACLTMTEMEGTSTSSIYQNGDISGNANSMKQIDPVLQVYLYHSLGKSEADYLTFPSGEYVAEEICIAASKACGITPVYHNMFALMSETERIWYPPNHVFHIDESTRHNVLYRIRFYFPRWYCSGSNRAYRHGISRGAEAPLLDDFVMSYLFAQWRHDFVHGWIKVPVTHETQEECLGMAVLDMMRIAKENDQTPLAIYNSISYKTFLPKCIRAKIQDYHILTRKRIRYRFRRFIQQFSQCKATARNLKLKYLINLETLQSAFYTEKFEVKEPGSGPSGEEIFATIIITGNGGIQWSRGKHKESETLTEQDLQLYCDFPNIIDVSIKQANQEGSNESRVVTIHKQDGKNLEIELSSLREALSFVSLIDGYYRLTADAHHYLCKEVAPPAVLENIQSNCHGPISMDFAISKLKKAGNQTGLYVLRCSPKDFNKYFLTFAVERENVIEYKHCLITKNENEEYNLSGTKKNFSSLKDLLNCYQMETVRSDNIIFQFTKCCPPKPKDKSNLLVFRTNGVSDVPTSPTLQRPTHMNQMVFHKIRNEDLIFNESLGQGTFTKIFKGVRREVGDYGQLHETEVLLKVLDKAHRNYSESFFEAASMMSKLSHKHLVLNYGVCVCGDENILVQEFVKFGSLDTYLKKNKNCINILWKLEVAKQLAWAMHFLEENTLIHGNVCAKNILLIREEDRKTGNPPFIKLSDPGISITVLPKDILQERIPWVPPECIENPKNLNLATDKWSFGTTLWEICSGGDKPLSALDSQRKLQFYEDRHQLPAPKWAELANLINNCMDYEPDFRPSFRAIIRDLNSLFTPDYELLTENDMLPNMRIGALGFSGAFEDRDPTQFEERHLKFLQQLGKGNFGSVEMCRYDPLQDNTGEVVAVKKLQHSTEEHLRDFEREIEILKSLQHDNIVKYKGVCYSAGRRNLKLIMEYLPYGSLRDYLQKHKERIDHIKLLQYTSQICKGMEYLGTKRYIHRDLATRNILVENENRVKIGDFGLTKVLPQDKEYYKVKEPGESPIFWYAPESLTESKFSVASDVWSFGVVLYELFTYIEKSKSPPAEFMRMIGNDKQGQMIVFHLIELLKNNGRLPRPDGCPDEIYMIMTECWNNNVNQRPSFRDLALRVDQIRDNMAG

Turning to `Cc1cc(Nc2nc(N[C@@H](C)c3ncc(F)cn3)ncc2Cl)n[nH]1` [AZD1480], the “growth in soft agar” value in [1] is on record as “did not inhibit growth”. Further, the pIC50 in [2] was 8.89; in [3] it was 9.59.

Take `COc1cc2ncnc(Nc3ccc(F)c(Cl)c3)c2cc1OCCCN1CCOCC1` [Gefitinib]: in assay [1], the “growth in soft agar” value is given as “did not inhibit growth”.

Take `CCCS(=O)(=O)Nc1ccc(F)c(C(=O)c2c[nH]c3ncc(-c4ccc(Cl)cc4)cc23)c1F` [PLX-4032, vemurafenib]: the pIC50 is 6.82 in assay [4]; 6.60 in [5]; 7.22 in [6]; 7.22 in assay [7]; 6.16 in [8]; 5.23 in assay [9]. In addition, the pIC50 is 6.26 in assay [10], 5.42 in assay [11], 5.47 in assay [12] and 6.52 in assay [13].

For the compound `CCCS(=O)(=O)Nc1ccc(F)c(C(=O)c2c[nH]c3ncc(Cl)cc23)c1F` [PLX-4702], the pIC50 in assay [4] is 6.85; in [5] it was 6.60; in [6], 7.05; in [7], 7.05; in [8] it was 6.38; in assay [9], 5.34. For the same compound, the pIC50 in assay [10] was 6.11; in assay [11], 5.26; in [12], 5.17; in assay [13], 6.27.

On to `CC(C)(C)c1nc2c3cc[nH]c(=O)c3c3cc(F)ccc3c2[nH]1` [Pyridone 6], for which the pIC50 in assay [14] was 7.00 to 7.30. Moreover, the IC50 in assay [15] was at least 130 nM.

With `CC(C)(C)c1nc(-c2cccc(NS(=O)(=O)c3c(F)cccc3F)c2F)c(-c2ccnc(N)n2)s1` [dabrafenib], in assay [16], the “time until resistance occurs” value was 6 to 7 months. In addition, the “growth of the melanoma cells in soft agar” value in assay [17] was “does not block the growth”.
